{
  "source": "patent US20170274014A1",
  "about": "“COMBINATIONS OF LOW, IMMUNE ENHANCING, DOSES OF MTOR INHIBITORS AND CARS” (Novartis AG, priority 2014, published 2017)",
  "key": {"[1]": {"system": "H3N2 A/Victoria/210/2009", "test": "Hemagglutination inhibition titers after seasonal influenza vaccination, A/H3N2 vaccine strain", "format": "in vivo, human", "details": "for HI GMT A/H3N2, Baseline: 2 weeks prior to influenza vaccination; for HI GMT A/H3N2, Week 4: 4 weeks after influenza vaccination", "procedure": "(§1) The trial was observer-blind because the placebo in the RAD001 0.5 mg daily and 20 mg weekly cohorts differed slightly from the RAD001 tablets in those cohorts. […] The treatment duration for all cohorts was 6 weeks during which time subjects underwent safety evaluations in the clinic every 2 weeks. After subjects had been dosed for 4 weeks, RAD001 steady state levels were measured pre-dose and at one hour post dose. After completing the 6 week course of study drug, subjects were given a 2 week drug free break to reverse any possible RAD001-induced immunosuppression, and then were given a 2012 seasonal influenza vaccination (Agrippal®, Novartis Vaccines and Diagnostics, Siena, Italy) containing the strains H1N1 A/California/07/2009, H3N2 A/Victoria/210/2009, B/Brisbane/60/2008. Four weeks after influenza vaccination, subjects had serum collected for influenza titer measurements. Antibody titers to the 3 influenza vaccine strains as well as to 2 heterologous strains (A/H1N1 strain A/New Jersey/8/76 and A/H3N2 strain A/Victoria/361/11) were measured by standard hemagglutination inhibition assay (Kendal, A P et al. (1982) Concepts and procedures for laboratory-based influenza surveillance. Atlanta: Centers for Disease Control and Prevention B17-B35). Levels of IgG and IgM specific for the A/H1N1/California/07/2009 were measured in serum samples taken before and 4 weeks after influenza vaccination as described previously (Spensieri, F. et al. (2013) Proc. Natl. Acad. Sci. USA 110:14330-14335). Results were expressed as fluorescence intensity.\n(§2) The primary analysis of geometric mean titer ratios was done using a normal Bayesian regression model with non-informative priors. This model was fitted to each antibody titer on the log scale. The primary outcome in each model was the Day 84 measurement. The Day 63 measurement was included in the outcome vector. The model fitted using SAS 9.2 proc mixed with the prior statement. The covariance structure of the matrix was considered as unstructured (option type=UN). A flat prior was used. For the secondary analysis of seroconversion rates, logistic regression was used.\n(§3) The ability of RAD001 to improve immune function in elderly volunteers was evaluated by measuring the serologic response to the 2012 seasonal influenza vaccine. The hemagglutination inhibition (HI) geometric mean titers (GMT) to each of the 3 influenza vaccine strains at baseline and 4 weeks after influenza vaccination are provided in Table 6. The primary analysis variable was the HI GMT ratio (4 weeks post vaccination/baseline).\n(§4) Rates of seroconversion 4 weeks after influenza vaccination were also evaluated. Seroconversion was defined as the change from a negative pre-vaccination titer (i.e., HI titer <1:10) to post-vaccination HI titer ≧1:40 or at least 4-fold increase from a non-negative (≧1:10) pre-vaccination HI titer."}, "[2]": {"test": "PK analysis of RAD001 in blood of tumor bearing NSG mice", "format": "in vivo", "details": "for concentration at 24 h: mouse, whole blood", "procedure": "RAD001 dosing: A concentrated micro-emulsion of 50 mg equal to 1 mg RAD001 was formulated and then resuspended in D5W (dextrose 5% in water) at the time of dosing. Mice were orally dosed daily (via oral gavage) with 200 μl of the desired doses of RAD001.\nPK analysis: Mice were dosed daily with RAD001 starting 7 days post tumor implantation. Dosing groups were as follows: 0.3 mg/kg, 1 mg/kg, 3 mg/kg, and 10 mg/kg. Mice were bled on days 0 and 14 following the first and last dose of RAD001, at the following time points for PK analysis: 15 minutes, 30 minutes, 1 hour, 2 hours, 4 hours, 8 hours, 12 hours, and 24 hours."}, "[3]": {"system": "influenza vaccine strains (H1N1 A/California/07/2009, H3N2 A/Victoria/210/2009, B/Brisbane/60/2008)", "test": "Influenza vaccine strain titers after RAD001 dosing versus placebo", "format": "in vivo, human", "details": "4 weeks after vaccination; RAD001 dosing cohorts; intention to treat population", "procedure": "In FIG. 1A, the increase above baseline in influenza geometric mean titers to each of the 3 influenza vaccine strains (H1N1 A/California/07/2009, H3N2 A/Victoria/210/2009, B/Brisbane/60/2008) relative to the increase in the placebo cohort 4 weeks after vaccination is shown for each of the RAD001 dosing cohorts in the intention to treat population. […] FIG. 1B is a graph of the same data as in FIG. 1A for the subset of subjects with baseline influenza titers <=1:40.\nRAD001 concentrations (1 hour post dose) were measured after subjects had been dosed for 4 weeks. All subjects who had pharmacokinetic measurements were included in the analysis set. The fold increase in geometric mean titers at 4 weeks post vaccination relative to baseline is shown on the y axis."}, "[4]": {"details": "in vivo"}, "[5]": {"system": "NALM6-luc tumors", "test": "Growth of NALM6-luc tumors in NSG mice", "format": "in vivo", "details": "daily oral dosing of RAD001 alone"}, "[6]": {"system": "B/Brisbane/60/2008", "test": "Hemagglutination inhibition titers after seasonal influenza vaccination, B vaccine strain", "format": "in vivo, human", "details": "for HI GMT B, Baseline: 2 weeks prior to influenza vaccination; for HI GMT B, Week 4: 4 weeks after influenza vaccination", "procedure": "as §1, §2, §3, §4"}, "[7]": {"details": "elderly subjects"}, "[8]": {"system": "huCAR19 CAR T cells", "test": "CAR T cell expansion in vivo in NSG mice with NALM6-luc tumors (FACS)", "details": "lowest doses of RAD001, daily oral; more evident and prolonged with CD4+ than CD8+ CAR T cells"}, "[9]": {"system": "CAR-expressing, transduced T cells", "test": "CART co-culture with NALM6 cells in presence of RAD001", "details": "low doses of RAD001, 4 days"}, "[10]": {"details": "Intention to Treat Population, 0.5 mg, N = 48"}, "[11]": {"details": "Intention to Treat Population, 5 mg, N = 49"}, "[12]": {"details": "Intention to Treat Population, 20 mg, N = 48"}, "[13]": {"details": "Subjects with Baseline Titers <=40, 5 mg"}, "[14]": {"details": "Subjects with Baseline Titers <=40, 20 mg"}},
  "note": "Where two headings read alike, the source gives them in different places.",
  "data": [
    {"smiles": "CO[C@H]1C[C@@H]2CC[C@@H](C)[C@@](O)(O2)C(=O)C(=O)N2CCCC[C@H]2C(=O)O[C@H]([C@H](C)C[C@@H]2CC[C@@H](OCCO)[C@H](OC)C2)CC(=O)[C@H](C)/C=C(\\C)[C@@H](O)[C@@H](OC)C(=O)[C@H](C)C[C@H](C)/C=C/C=C/C=C/1C", "note": "[RAD001, (1R,9S,12S,15R,16E,18R,19R,21R,23S,24E,26E,28E,30S,32S,35R)-1,18-dihydroxy-12-{(1R)-2-[(1S,3R,4R)-4-(2-hydroxyethoxy)-3-methoxycyclohexyl]-1-methylethyl}-19,30-dimethoxy-15,17,21,23,29,35-hexamethyl-11,36-dioxa-4-aza-tricyclo[30.3.1.04,9]hexatriaconta-16,24,26,28-tetraene-2,3,10,14,20-pentaone]", "values": [
      {"measurement": "HI GMT ratio A/H3N2 (week 4 post vaccination/baseline)", "setting": "[1]; 0.5 mg daily, N = 50", "value": 2.1},
      {"measurement": "HI GMT A/H3N2, Baseline", "setting": "[1]; 0.5 mg daily, N = 50", "value": 106.8},
      {"measurement": "HI GMT A/H3N2, Week 4", "setting": "[1]; 0.5 mg daily, N = 50", "value": 194.4},
      {"measurement": "HI GMT ratio A/H3N2 (week 4 post vaccination/baseline)", "setting": "[1]; 5 mg weekly, N = 49", "value": 2.0},
      {"measurement": "HI GMT A/H3N2, Baseline", "setting": "[1]; 5 mg weekly, N = 49", "value": 126.04},
      {"measurement": "HI GMT A/H3N2, Week 4", "setting": "[1]; 5 mg weekly, N = 49", "value": 223.0},
      {"measurement": "HI GMT ratio A/H3N2 (week 4 post vaccination/baseline)", "setting": "[1]; 20 mg weekly, N = 49", "value": 2.1},
      {"measurement": "HI GMT A/H3N2, Baseline", "setting": "[1]; 20 mg weekly, N = 49", "value": 137.1},
      {"measurement": "HI GMT A/H3N2, Week 4", "setting": "[1]; 20 mg weekly, N = 49", "value": 223.0},
      {"measurement": "Percent of subjects with seroconversion to influenza H3N2 4 weeks after vaccination", "setting": "[1]; [10]", "value": 27, "unit": "%"},
      {"measurement": "Percent of subjects with seroconversion to influenza H3N2 4 weeks after vaccination", "setting": "[1]; [11]", "value": 24, "unit": "%"},
      {"measurement": "Percent of subjects with seroconversion to influenza H3N2 4 weeks after vaccination", "setting": "[1]; [12]", "value": 25, "unit": "%"},
      {"measurement": "Percent of subjects with seroconversion to influenza H3N2 4 weeks after vaccination", "setting": "[1]; Subjects with Baseline Titers <=40, 0.5 mg", "value": 64, "unit": "%"},
      {"measurement": "Percent of subjects with seroconversion to influenza H3N2 4 weeks after vaccination", "setting": "[1]; [13]", "value": 53, "unit": "%"},
      {"measurement": "Percent of subjects with seroconversion to influenza H3N2 4 weeks after vaccination", "setting": "[1]; [14]", "value": 71, "unit": "%"},
      {"measurement": "concentration at 24 h", "setting": "[2]; NSG, lowest dose tested (0.3 mg/kg) oral daily, day 0 and day 14, read-out: RAD001 concentration in the blood 24 hours after dosing", "value": "> 10", "unit": "nM"},
      {"measurement": "Stability in the blood of tumor bearing mice", "setting": "[2]; daily oral dosing, day 0 and day 14 PK", "value": "fairly stable"},
      {"measurement": "concentration at 24 h", "setting": "[2]; 0.3 mg/kg, NSG mice, daily oral dosing, read-out: Concentration of RAD001 24 hours after the final dose", "value": "> 10", "unit": "nM"},
      {"measurement": "increase above baseline in influenza geometric mean titers to the 3 influenza vaccine strains relative to placebo", "setting": "[3]", "value": "increase in titers"},
      {"measurement": "Trough level of the immunization study regimens relative to approved transplant and oncology regimens", "setting": "[4]; human", "value": "3-20 fold lower"},
      {"measurement": "Average RAD001 trough level", "setting": "[4]", "value": "below detection limits"},
      {"measurement": "Impact on the growth of NALM6-luc tumors", "setting": "[5]", "value": "did not have an impact"},
      {"measurement": "HI GMT ratio B (week 4 post vaccination/baseline)", "setting": "[6]; 0.5 mg daily, N = 50", "value": 2.5},
      {"measurement": "HI GMT B, Baseline", "setting": "[6]; 0.5 mg daily, N = 50", "value": 44.2},
      {"measurement": "HI GMT B, Week 4", "setting": "[6]; 0.5 mg daily, N = 50", "value": 98.4},
      {"measurement": "HI GMT ratio B (week 4 post vaccination/baseline)", "setting": "[6]; 5 mg weekly, N = 49", "value": 2.2},
      {"measurement": "HI GMT B, Baseline", "setting": "[6]; 5 mg weekly, N = 49", "value": 64.8},
      {"measurement": "HI GMT B, Week 4", "setting": "[6]; 5 mg weekly, N = 49", "value": 117.3},
      {"measurement": "HI GMT ratio B (week 4 post vaccination/baseline)", "setting": "[6]; 20 mg weekly, N = 49", "value": 2.1},
      {"measurement": "HI GMT B, Baseline", "setting": "[6]; 20 mg weekly, N = 49", "value": 58.0},
      {"measurement": "HI GMT B, Week 4", "setting": "[6]; 20 mg weekly, N = 49", "value": 99.2},
      {"measurement": "Percent of subjects with seroconversion to influenza B 4 weeks after vaccination", "setting": "[6]; [10]", "value": 27, "unit": "%"},
      {"measurement": "Percent of subjects with seroconversion to influenza B 4 weeks after vaccination", "setting": "[6]; [11]", "value": 22, "unit": "%"},
      {"measurement": "Percent of subjects with seroconversion to influenza B 4 weeks after vaccination", "setting": "[6]; [12]", "value": 19, "unit": "%"},
      {"measurement": "Percent of subjects with seroconversion to influenza B 4 weeks after vaccination", "setting": "[6]; Subjects with Baseline Titers <=40, 0.5 mg, * p < 0.05 vs placebo", "value": "40* Percent"},
      {"measurement": "Percent of subjects with seroconversion to influenza B 4 weeks after vaccination", "setting": "[6]; [13]", "value": 33, "unit": "%"},
      {"measurement": "Percent of subjects with seroconversion to influenza B 4 weeks after vaccination", "setting": "[6]; [14]", "value": 28, "unit": "%"},
      {"measurement": "exercise and energy", "setting": "[7]", "value": "increases in exercise and energy"},
      {"measurement": "Proliferation of the CAR T cells in vivo", "setting": "[8]", "value": "enhanced proliferation"},
      {"measurement": "proliferation of CAR-expressing, transduced T cells", "setting": "[9]", "value": "enhanced"}
    ]}
  ]
}
